Article PMC5429769, “Rational development of Stafib-2: a selective, nanomolar inhibitor of the transcription factor STAT5b” (Scientific Reports, 2017)
Entries after “also recorded” stand apart in the source; their conditions may differ.

Tests used:
STAT5b-GFP [1] = experiment: STAT5b Tyr699 phosphorylation in STAT5b-GFP-transfected K562 cells (Western blot); format: cell-based, human; settings: STAT5b-GFP-transfected K562 cells, 4 h, result in words
STAT5a-GFP = experiment: STAT5a Tyr694 phosphorylation in STAT5a-GFP-transfected K562 cells (Western blot); format: cell-based, human; settings: 4 h, result in words
STAT5b SH2 domain = molecular target: T1, STAT5b SH2 domain (Homo sapiens, UniProt P51692); experiment: Fluorescence polarization assay, STAT5b SH2 domain; format: binding; settings: for Ki: converted from IC50 using the published equation, n = 3; for Ki / IC50: mean ± s.d.; for IC50: fluorescence polarization, three independent experiments
T1 sequence (P51692 1-787): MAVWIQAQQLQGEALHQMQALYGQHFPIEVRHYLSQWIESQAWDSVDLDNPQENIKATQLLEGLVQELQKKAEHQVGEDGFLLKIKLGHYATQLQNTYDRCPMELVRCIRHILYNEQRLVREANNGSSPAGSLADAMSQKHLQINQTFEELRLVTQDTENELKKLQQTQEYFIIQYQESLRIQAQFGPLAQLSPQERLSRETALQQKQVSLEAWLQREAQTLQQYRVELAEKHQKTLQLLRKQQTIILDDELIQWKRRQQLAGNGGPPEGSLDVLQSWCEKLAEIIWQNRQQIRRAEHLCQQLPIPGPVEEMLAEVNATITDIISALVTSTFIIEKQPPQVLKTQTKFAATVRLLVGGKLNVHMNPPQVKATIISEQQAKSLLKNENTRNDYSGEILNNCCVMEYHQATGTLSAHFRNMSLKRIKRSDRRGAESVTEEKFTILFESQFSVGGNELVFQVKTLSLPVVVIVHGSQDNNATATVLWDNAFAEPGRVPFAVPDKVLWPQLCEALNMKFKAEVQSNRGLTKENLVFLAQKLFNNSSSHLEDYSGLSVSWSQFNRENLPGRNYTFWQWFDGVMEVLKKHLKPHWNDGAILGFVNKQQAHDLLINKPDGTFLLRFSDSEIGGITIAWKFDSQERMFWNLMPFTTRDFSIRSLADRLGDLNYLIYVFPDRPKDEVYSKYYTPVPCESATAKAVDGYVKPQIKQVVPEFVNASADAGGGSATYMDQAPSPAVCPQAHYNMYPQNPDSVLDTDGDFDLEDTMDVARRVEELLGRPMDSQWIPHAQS

STAT5a SH2 domain = molecular target: T2, STAT5a SH2 domain (Homo sapiens, UniProt P42229); experiment: Fluorescence polarization assay, STAT5a SH2 domain; format: binding; settings: mean ± s.d.; for Ki: converted from IC50 using the published equation, n = 3; for IC50: fluorescence polarization, three independent experiments
T2 sequence (P42229 1-794): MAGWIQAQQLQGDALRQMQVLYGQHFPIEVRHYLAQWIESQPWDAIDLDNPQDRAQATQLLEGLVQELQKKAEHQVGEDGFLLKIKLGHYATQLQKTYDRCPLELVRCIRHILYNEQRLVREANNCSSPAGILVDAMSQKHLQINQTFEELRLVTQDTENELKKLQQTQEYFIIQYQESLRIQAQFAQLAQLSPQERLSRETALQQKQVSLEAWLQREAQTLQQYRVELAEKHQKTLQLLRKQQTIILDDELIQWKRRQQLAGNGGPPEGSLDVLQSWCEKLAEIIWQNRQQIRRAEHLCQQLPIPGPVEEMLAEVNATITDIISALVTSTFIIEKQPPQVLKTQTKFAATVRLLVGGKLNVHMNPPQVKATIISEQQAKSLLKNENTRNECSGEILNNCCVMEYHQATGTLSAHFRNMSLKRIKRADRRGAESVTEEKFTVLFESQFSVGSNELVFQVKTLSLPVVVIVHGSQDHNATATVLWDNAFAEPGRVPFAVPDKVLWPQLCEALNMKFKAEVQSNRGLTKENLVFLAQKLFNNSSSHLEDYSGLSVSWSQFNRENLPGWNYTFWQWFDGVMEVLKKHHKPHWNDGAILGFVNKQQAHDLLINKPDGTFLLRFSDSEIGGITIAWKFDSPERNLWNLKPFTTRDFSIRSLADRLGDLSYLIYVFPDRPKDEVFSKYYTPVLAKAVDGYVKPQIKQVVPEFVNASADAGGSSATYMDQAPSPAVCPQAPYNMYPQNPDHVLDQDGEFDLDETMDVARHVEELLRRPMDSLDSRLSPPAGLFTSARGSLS

endogenous STAT5 = experiment: Tyrosine phosphorylation of endogenous total STAT5 in STAT5a/b-GFP-transfected K562 cells; format: cell-based, human; settings: result in words
K562 cells = experiment: Apoptosis assay (Annexin V / 7-AAD flow cytometry), K562 cells; format: cell-based, human; settings: untransfected K562 cells, 48 h, result in words
STAT5b-GFP [2] = molecular target: T3, STAT5b-GFP (Homo sapiens, UniProt P51692); experiment: STAT5b Tyr699 phosphorylation in STAT5b-GFP-transfected K562 cells (Western blot); format: cell-based; settings: STAT5b-GFP-transfected K562 cells
T3 sequence (P51692 1-787): T1 sequence (P51692 1-787)

MDA-MB-231 cells = experiment: Apoptosis assay (Annexin V / 7-AAD flow cytometry), MDA-MB-231 cells; format: cell-based; settings: MDA-MB-231 cells (STAT5-independent), 48 h, result in words

Row | SMILES | Ki (STAT5b SH2 domain) [µM] | IC50 (STAT5b SH2 domain) [µM] | Ki (STAT5a SH2 domain) [µM] | IC50 (STAT5a SH2 domain) [µM] | inhibition of STAT5a phosphorylation (STAT5a-GFP) | further results
1 | CC(C)(C)C(=O)OCOP(=O)(Cc1ccccc1CP(=O)(OCOC(=O)C(C)(C)C)OCOC(=O)C(C)(C)C)OCOC(=O)C(C)(C)C [compound 9, reference compound] |  |  |  |  | lack of inhibition | inhibition of STAT5b phosphorylation (STAT5b-GFP [1]): lack of inhibition
2 | CC(C)(C)C(=O)OCOP(=O)(OCOC(=O)C(C)(C)C)Oc1ccc(CNC(=O)COc2ccc(C(=O)Nc3ccc(Oc4ccccc4)cc3)cc2)cc1OP(=O)(OCOC(=O)C(C)(C)C)OCOC(=O)C(C)(C)C [compound 8, ((((4-((2-(4-((4-Phenoxyphenyl)carbamoyl)phenoxy)acetamido)methyl)-1,2-phenylene)bis(oxy))bis(oxo-l5-phosphanetriyl))tetrakis(oxy))tetrakis(methylene) tetrakis(2,2-dimethylpropanoate)] |  |  |  |  | not significantly reduced; also recorded: not inhibited | inhibition of phosphorylation of endogenous STAT5 (endogenous STAT5): inhibited; apoptotic rate (K562 cells): dose-dependent increase; also recorded: increased; fold more active against STAT5b phosphorylation than the pivaloyloxymethylesters of 2 and of Capstafin (STAT5b-GFP [2]): 2.5 fold; inhibition of STAT5b phosphorylation (STAT5b-GFP [2]; 4 h, result in words): Dose-dependent inhibition; apoptotic rate (MDA-MB-231 cells): does not increase; also recorded: not increased; inhibition of STAT5a phosphorylation (STAT5a-GFP; listed as Pomstafib-2): without significantly affecting
3 | O=C(COc1ccc(C(=O)Nc2ccc(Oc3ccccc3)cc2)cc1)NCc1ccc(O)c(O)c1 [compound 7] |  |  |  |  |  | STAT5b inhibition (STAT5b SH2 domain; at 80 µM): lack of activity; also recorded: no inhibition at 80 µM

Further lines, with some results ahead:

Row | Ki (STAT5b SH2 domain) [µM] | IC50 (STAT5b SH2 domain) [µM] | Ki (STAT5a SH2 domain) [µM] | IC50 (STAT5a SH2 domain) [µM] | SMILES | inhibition of STAT5a phosphorylation (STAT5a-GFP) | further results
4 | 0.11 ± 0.01 | 0.28 ± 0.01 | 4.8 ± 0.1 | 9.7 ± 0.3 | O=C(COc1ccc(C(=O)Nc2ccccc2)cc1)NCc1ccc(OP(=O)(O)O)c(OP(=O)(O)O)c1 [compound 5] |  | 
5 | 0.093 ± 0.003 | 0.19 ± 0.01 | 2.9 ± 0.1 | 5.8 ± 0.3 | O=C(COc1ccc2cc(C(=O)Nc3ccc(Oc4ccccc4)cc3)ccc2c1)NCc1ccc(OP(=O)(O)O)c(OP(=O)(O)O)c1 [compound 3] |  | fold less active than 2 (STAT5b SH2 domain; STAT5b Ki relative to 2): 2 fold
